# From US20160128935A1, “METHOD OF TREATING AN ANIMAL” (priority 2012, published 2016)
# Test system: bacterial infections
# Assay: Treatment of cichlids having bacterial infections by feeding injected live worms
# Assay type: in vivo
# Conditions: Emperor and Peacock Cichlids with bacterial infections; one injected live worm per fish for six days
# Procedure: Emperor Cichlids and Peacock Cichlids (fish) having bacterial infections were treated using one live food creature (a live worm) per fish for six days. Each worm was injected with Antibiotic Metronidazole at a measurement of 5 ml in syringe and the worm was injected with as much of the 5 ml as the worm would hold. The injected worms were fed to the fish individually by placing the worm adjacent the fish and feeding was confirmed by observation. The fish ate the treated worms in all cases, showing a vigorous feeding instinct for the live worms. […] It is typical to lose some fish being treated for bacterial infections.
compound,measurement,value
Cc1ncc([N+](=O)[O-])n1CCO [Metronidazole],loss of treated fish,None of the fish so treated were lost
same,recovery time (sufficiently recovered to be salable),sufficiently recovered to be salable within seven days
